± gives the standard deviation of the averaged measurements.
Experiments:
Details in all cases: 72 h
[1] = system: HepG2; experiment: relative viability EC50 (midpoint between 100% and the lowest measured viability); higher = less toxic
[2] = system: Caco-2; experiment: as above
[3] = system: Calu-3; experiment: as above
[4] = system: Vero E6; experiment: as above
[5] = system: U2OS; experiment: as above
[6] = system: HepG2; experiment: drug sensitivity score (DSS) for viability; higher = more toxic; extreme values may be limits of the assay
[7] = system: Caco-2; experiment: as above
[8] = system: Calu-3; experiment: as above
[9] = system: Vero E6; experiment: as above
[10] = system: U2OS; experiment: as above
[11] = system: HepG2; experiment: cell viability relative to DMSO; higher = less toxic
[12] = system: Caco-2; experiment: as above
[13] = system: Calu-3; experiment: as above
[14] = system: Vero E6; experiment: as above
[15] = system: U2OS; experiment: as above

| Structure (SMILES) | relative viability EC50 [1] | relative viability EC50 [2] | relative viability EC50 [3] | relative viability EC50 [4] | relative viability EC50 [5] | drug sensitivity score [6] | drug sensitivity score [7] | drug sensitivity score [8] | drug sensitivity score [9] | drug sensitivity score [10] | cell viability ([11]; 1 nM) | cell viability ([11]; 10 nM) | cell viability ([11]; 100 nM) | cell viability ([11]; 1000 nM) | cell viability ([11]; 10000 nM) | cell viability ([12]; 1 nM) | cell viability ([12]; 10 nM) | cell viability ([12]; 100 nM) | cell viability ([12]; 1000 nM) | cell viability ([12]; 10000 nM) | cell viability ([13]; 1 nM) | cell viability ([13]; 10 nM) | cell viability ([13]; 100 nM) | cell viability ([13]; 1000 nM) | cell viability ([13]; 10000 nM) | cell viability ([14]; 1 nM) | cell viability ([14]; 10 nM) | cell viability ([14]; 100 nM) | cell viability ([14]; 1000 nM) | cell viability ([14]; 10000 nM) | cell viability ([15]; 1 nM) | cell viability ([15]; 10 nM) | cell viability ([15]; 100 nM) | cell viability ([15]; 1000 nM) | cell viability ([15]; 10000 nM) |
| --- | --- | --- | --- | --- | --- | --- | --- | --- | --- | --- | --- | --- | --- | --- | --- | --- | --- | --- | --- | --- | --- | --- | --- | --- | --- | --- | --- | --- | --- | --- | --- | --- | --- | --- | --- |
| NC(=O)c1ccc(-c2nc(-c3ccc4c(c3)OCCO4)c(-c3ccccn3)[nH]2)cc1 [D-4476] | > 10 µM | > 10 µM | > 10 µM | > 10 µM | > 10 µM | 0 | 0 | 0 | 0 | 0 | 105% | 103% | 96.3% | 96% | 105% | 93% | 95.1% | 92.4% | 92.8% | 98.6% | 84.4% | 101% | 96.1% | 108% | 98.8% | 102% | 93.4% | 100% | 106% | 106% | 96.1% | 97.9% | 96.7% | 99.5% | 91.9% |
| CN1CCN(C(=O)O[C@H]2c3nccnc3C(=O)N2c2ccc(Cl)cn2)CC1 [ESZOPICLONE] | > 10 µM | > 10 µM | > 10 µM | > 10 µM | > 10 µM | 0 | 0 | 0 | 0 | 0 | 97.2% | 95.2% | 92.8% | 102% | 101% | 93.8% | 98.3% | 94.3% | 98.6% | 100% | 109% | 106% | 91.2% | 104% | 99.6% | 97.3% | 101% | 93.6% | 97.2% | 111% | 98.3% | 87.6% | 99.5% | 98.3% | 96.6% |
| NC(=O)c1cccc(-c2cc(Nc3ccc(OC(F)(F)F)cc3)ncn2)c1 [GNF-2] | > 10 µM | > 10 µM | > 10 µM | > 10 µM | > 10 µM | 1.3 | 1.3 | 0.5 | 0 | 0 | 108% | 99.6% | 93.4% | 96.4% | 77.3% | 102% | 102% | 104% | 87.1% | 83.7% | 104% | 103% | 97.9% | 90.3% | 86.6% | 104% | 99% | 94.6% | 106% | 102% | 103% | 99.2% | 99.1% | 102% | 103% |
| O=S(=O)(Cc1ccccc1)Nc1ccc(-c2ccc3c(cnn3-c3ccc(F)cc3)c2)c(C(F)(F)F)c1 [GSK9027] | > 10 µM | > 10 µM | > 10 µM | > 10 µM | > 10 µM | 0.1 | 0.4 | 0 | 0 | 0 | 96% | 94.4% | 95.3% | 104% | 86.3% | 90.8% | 98.6% | 99.7% | 97.7% | 85.5% | 103% | 105% | 97.6% | 92.2% | 97.1% | 96% | 94.2% | 91.1% | 95.2% | 110% | 94.7% | 93.7% | 100% | 95.9% | 93.7% |
| CCOC(=O)C1=C(N)Oc2ccc(Br)cc2C1C(C#N)C(=O)OCC (stereo not given) [HA-14-1] | > 10 µM | > 10 µM | > 10 µM | > 10 µM | > 10 µM | 0 | 0 | 0 | 0 | 0 | 100 ± 2.5% | 97.3 ± 9.6% | 98.2 ± 4.7% | 95.7 ± 7.4% | 96.8 ± 7.7% | 99 ± 3.9% | 95.2 ± 4.1% | 104 ± 4.9% | 99.7 ± 4.6% | 99.5 ± 5% | 95.2 ± 7.3% | 105 ± 8.6% | 97 ± 0.99% | 98.2 ± 4.5% | 108.6 ± 0.14% | 93% | 100% | 90% | 97.7% | 99.3% | 95% | 99.9% | 99% | 101% | 110% |
| N[C@@H](Cc1ccc(O)cc1)C(=O)NCC(=O)NCC(=O)O [IMREG-1] | > 10 µM | > 10 µM | > 10 µM | > 10 µM | > 10 µM | 0.1 | 0 | 0 | 0 | 0 | 101% | 102% | 92% | 103% | 86.8% | 98.2% | 91.6% | 103% | 91.3% | 97.1% | 102% | 99.5% | 101% | 98.5% | 108% | 90.7% | 96.8% | 92.6% | 97.9% | 89.8% | 104% | 95% | 97.6% | 93.5% | 102% |
